This is an account of results in patent US11472803B2, “7-substituted 1-aryl-naphthyridine-3-carboxylic acid amides and use thereof” (Bayer Aktiengesellschaft, priority 2016, dated 2022).

The target in this assay is T1, human M2 receptor (Homo sapiens, UniProt P08172).
T1 construct: expressed in transfected cells; host or cells: CHO-DUKX (CHO-DUKX-M2-GIRK)
T1 sequence (P08172 1-466): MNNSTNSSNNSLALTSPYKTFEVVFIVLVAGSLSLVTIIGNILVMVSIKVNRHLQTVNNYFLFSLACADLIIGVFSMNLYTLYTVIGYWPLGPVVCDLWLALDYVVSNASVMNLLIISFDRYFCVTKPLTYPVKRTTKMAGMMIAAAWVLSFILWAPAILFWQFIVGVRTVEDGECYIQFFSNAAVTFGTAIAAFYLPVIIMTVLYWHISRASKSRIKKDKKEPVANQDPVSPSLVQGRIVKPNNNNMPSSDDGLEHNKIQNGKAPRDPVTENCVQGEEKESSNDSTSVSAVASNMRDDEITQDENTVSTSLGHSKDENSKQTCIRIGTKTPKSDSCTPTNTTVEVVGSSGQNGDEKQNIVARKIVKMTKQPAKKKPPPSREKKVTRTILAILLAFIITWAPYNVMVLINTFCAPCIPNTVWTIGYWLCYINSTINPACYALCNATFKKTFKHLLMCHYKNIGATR
Kind of assay: Functional M2-GIRK1/4 activation test: allosteric potency (EC50) and efficiency at EC20 acetylcholine. The format is cell-based. The note with it: CHO-DUKX-M2-GIRK cells; for Emax / Efficiency: boosting of the acetylcholine effect at EC20 acetylcholine concentration; for EC50: voltage-sensitive dye, acetylcholine at EC20, in some cases mean of two or more determinations. The source says:
The binding of orthosteric agonists (endogenous ligand: acetylcholine) to the M2 receptor leads to receptor activation or a change in conformation of the receptor in the manner of a shift in equilibrium in favour of the active receptor conformation.
The agonist-induced change in conformation of the M2 receptor results in a Gαi protein activation. […] Under physiological conditions, the result is then a selective efflux of potassium from the cell along the electrochemical gradient. […] The extent of hyperpolarization can therefore be regarded as a measure of the activation of the M2 receptor.
The test cell used is a recombinant CHO-DUKX cell line which has been stably transfected with cDNA coding for the human M2 receptor and with cDNA coding for both GIRK1/4 subunits (CHO-DUKX-M2-GIRK). The transmembrane potential, or the relative changes in the transmembrane potential as a function of substance addition or M2 activation, is determined by means of a voltage-sensitive dye (FLIPR Membrane Potential Assay Kit Blue, Molecular Devices #R8034) and the measurement of cell fluorescence using a proprietary fluorescence imaging instrument.
The sowing medium consisted of MEM alpha medium (supplemented with 5% PCS, 2% Glutamax, no genticin).
For the particular measurement, the medium was removed and the cells were laden with the volt-age-sensitive dye for at least 6 min at room temperature (30 μl of loading buffer per 384-well). This was followed, in a first measurement, by the determination of the fluorescence for the resting transmembrane potential for a period of 5 sec. Thereafter, 10 μl in each case of the test substances diluted in loading buffer were added, followed by a second measurement to determine the transmembrane potential for a period of 50 sec in 1 sec increments. Finally, the cells were admixed with 10 μl of agonist solution (acetylcholine dissolved in loading buffer). Acetylcholine was used at the concentration corresponding to the EC20, which had been determined in a preliminary test. The M2-mediated GIRK1/4 activation or hyperpolarization was then monitored in a third measurement over a period of 60 sec. The EC50 value (degree of allosteric potency of test compound) and the efficiency (measure of the boosting of the acetylcholine effect at an EC20 acetylcholine concentration) were determined with the aid of a 4-parameter logistic function (Hill function).

As for `CC(NC(=O)c1cn(-c2c(F)cc(F)cc2F)c2nc(N3C[C@@H](O)[C@H](O)C3)c(F)cc2c1=O)C(F)(F)C(F)(F)F` (mixture of isomers) [Example 8, 7-[(3R,4R)-3,4-Dihydroxypyrrolidin-1-yl]-6-fluoro-4-oxo-N-[3,3,4,4,4-pentafluorobutan-2-yl]-1-(2,4,6-trifluorophenyl)-1,4-dihydro-1,8-naphthyridine-3-carboxamide], the maximum response (Emax) amounted to 96%.

`CC(NC(=O)c1cn(-c2ncc(F)cc2F)c2nc(N3CC[C@H](O)C3)c(F)cc2c1=O)C(F)(F)C(F)(F)F` (mixture of isomers) [Example 127, 1-(3,5-Difluoropyridin-2-yl)-6-fluoro-7-[(3S)-3-hydroxypyrrolidin-1-yl]-4-oxo-N-[3,3,4,4,4-pentafluorobutan-2-yl]-1,4-dihydro-1,8-naphthyridine-3-carboxamide] registered an EC50 of 13 nM and an Emax of 92%.

For the compound `O=C(N[C@@H](C1CC1)C(F)(F)F)c1cn(-c2c(F)cc(F)cc2F)c2nc(N3CCCC3)c(F)cc2c1=O` [Example 231, N-[(1S)-1-cyclopropyl-2,2,2-trifluoroethyl]-6-fluoro-4-oxo-7-(pyrrolidin-1-yl)-1-(2,4,6-tri-fluorophenyl)-1,4-dihydro-1,8-naphthyridine-3-carboxamide], a half-maximal effect (EC50) was put at 4.8 nM and the Emax is 82%.

Compound `CCC(C)(CC)NC(=O)c1cn(-c2ncc(F)cc2F)c2nc(N3C[C@@H](O)[C@H](O)C3)c(F)cc2c1=O` [Example 76, 1-(3,5-Difluoropyridin-2-yl)-7-[(3R,4R)-3,4-dihydroxypyrrolidin-1-yl]-6-fluoro-N-(3-methylpentan-3-yl)-4-oxo-1,4-dihydro-1,8-naphthyridine-3-carboxamide] returned an EC50 of 29 nM and an Emax of 100%.

`O=C(NCC(F)(F)F)c1cn(-c2c(F)cc(F)cc2Cl)c2nc(N3C[C@@H](O)[C@H](O)C3)c(F)cc2c1=O` (single isomer, unassigned) [Example 222] registered an EC50 of 550 nM and an Efficiency of 61%.

With `O=C(NC(C(F)(F)F)C(F)(F)F)c1cn(-c2ncc(F)cc2F)c2nc(N3CCC(CO)(CO)CC3)c(F)cc2c1=O` [Example 195, 7-[4,4-bis(hydroxymethyl)piperidin-1-yl]-1-(3,5-difluoropyridin-2-yl)-6-fluoro-N-(1,1,1,3,3,3-hexafluoropropan-2-yl)-4-oxo-1,4-dihydro-1,8-naphthyridine-3-carboxamide], the half-maximal effective concentration (EC50) stood at 58 nM and the Emax is 100%.

Consider `C[C@H](NC(=O)c1cn(-c2c(F)cc(F)cc2Cl)c2nc(N3C[C@@H](O)[C@H](O)C3)c(F)cc2c1=O)C1CC1` [Example 43, 1-(2-chloro-4,6-difluorophenyl)-N-[(1S)-1-cyclopropylethyl]-7-[(3R,4R)-3,4-dihydroxypyrrolidin-1-yl]-6-fluoro-4-oxo-1,4-dihydro-1,8-naphthyridine-3-carboxamide], for which the EC50 was found to be 7.5 nM and the maximal response (Emax) is 100%.

The compound `O=C(N[C@@H](C1CC1)C(F)(F)F)c1cn(-c2c(F)cc(F)cc2Cl)c2nc(N3CC(CO)(CO)C3)c(F)cc2c1=O` [Example 69, 7-[3,3-Bis(hydroxymethyl)azetidin-1-yl]-1-(2-chloro-4,6-difluorophenyl)-N-[(1S)-1-cyclopropyl-2,2,2-trifluoroethyl]-6-fluoro-4-oxo-1,4-dihydro-1,8-naphthyridine-3-carboxamide] yielded a half-maximal effective concentration (EC50) of 5.9 nM and a maximal response (Emax) of 100%.

For the compound `Cc1cc(F)cc(C)c1-n1cc(C(=O)N[C@@H](C2CC2)C(F)(F)F)c(=O)c2cc(F)c(N3C[C@@H](O)[C@H](O)C3)nc21` [Example 175, N-[(1S)-1-Cyclopropyl-2,2,2-trifluoroethyl]-7-[(3R,4R)-3,4-dihydroxypyrrolidin-1-yl]-6-fluoro-1-(4-fluoro-2,6-dimethylphenyl)-4-oxo-1,4-dihydro-1,8-naphthyridine-3-carboxamide], it took 73 nM to reach a half-maximal effect (EC50) and the maximal effect (Emax) stood at 83%.

Compound `C[C@H](O)CN(C)c1nc2c(cc1F)c(=O)c(C(=O)N[C@@H](C1CC1)C(F)(F)F)cn2-c1c(F)cc(F)cc1F` [Example 64, N-[(1S)-1-Cyclopropyl-2,2,2-trifluoroethyl]-6-fluoro-7-{[(2S)-2-hydroxypropyl](methyl)amino}-4-oxo-1-(2,4,6-trifluorophenyl)-1,4-dihydro-1,8-naphthyridine-3-carboxamide] yielded a concentration giving a half-maximal response (EC50) of 12 nM and an Emax of 96%.

Compound `CCC(COC(F)(F)F)NC(=O)c1cn(-c2c(F)cc(F)cc2F)c2nc(N3CC[C@H](O)C3)c(F)cc2c1=O` (mixture of isomers) [Example 109, 6-Fluoro-7-[(3S)-3-hydroxypyrrolidin-1-yl]-4-oxo-N-[1-(trifluoromethoxy)butan-2-yl]-1-(2,4,6-trifluorophenyl)-1,4-dihydro-1,8-naphthyridine-3-carboxamide] yielded an EC50 of 7.7 nM and a maximum response (Emax) of 100%.

`C[C@@H](NC(=O)c1cn(-c2c(F)cc(F)cc2Cl)c2nc(N3C[C@@H](O)[C@H](O)C3)c(F)cc2c1=O)C(F)(F)F` (single isomer, unassigned) [Example 229]: the response was half-maximal at 260 nM (EC50) and the Efficiency was determined as 67%.

For the compound `CC(C)(NC(=O)c1cn(-c2c(F)cc(F)cc2F)c2nc(N3C[C@@H](O)[C@@H](O)C3)c(F)cc2c1=O)C(F)(F)F` [Example 124, 7-[(3R,4S)-3,4-Dihydroxypyrrolidin-1-yl]-6-fluoro-4-oxo-N-(1,1,1-trifluoro-2-methylpropan-2-yl)-1-(2,4,6-trifluorophenyl)-1,4-dihydro-1,8-naphthyridine-3-carboxamide], the EC50 was found to be 18 nM and the Emax amounted to 100%.

In turn, `COC[C@H](NC(=O)c1cn(-c2c(F)cc(F)cc2F)c2nc(N3CC[C@H](O)C3)c(F)cc2c1=O)C(C)C` [Example 121, 6-Fluoro-7-[(3S)-3-hydroxypyrrolidin-1-yl]-N-[(2R)-1-methoxy-3-methylbutan-2-yl]-4-oxo-1-(2,4,6-trifluorophenyl)-1,4-dihydro-1,8-naphthyridine-3-carboxamide] registered a concentration for a half-maximal effect (EC50) of 125 nM and a maximal response (Emax) of 100%.

As to `O=C(N[C@@H](C1CC1)C(F)(F)F)c1cn(-c2c(F)cc(F)cc2F)c2nc(N3CC4(COC4)C3)c(F)cc2c1=O` [Example 83, N-[(1S)-1-Cyclopropyl-2,2,2-trifluoroethyl]-6-fluoro-7-(2-oxa-6-azaspiro[3.3]hept-6-yl)-4-oxo-1-(2,4,6-trifluorophenyl)-1,4-dihydro-1,8-naphthyridine-3-carboxamide], a half-maximal effect (EC50) was put at 44 nM and the maximum response (Emax) was found to be 94%.

Consider `CC[C@H](NC(=O)c1cn(-c2c(F)cc(F)cc2F)c2nc(N3C[C@H](O)[C@@H](O)C3)c(F)cc2c1=O)C(F)(F)F` [Example 178, 7-[(3S,4S)-3,4-Dihydroxypyrrolidin-1-yl]-6-fluoro-4-oxo-N-[(2S)-1,1,1-trifluorobutan-2-yl]-1-(2,4,6-trifluorophenyl)-1,4-dihydro-1,8-naphthyridine-3-carboxamide], for which it took 17 nM to reach a half-maximal effect (EC50) and the maximal response (Emax) was 99%.

With `CC[C@H](NC(=O)c1cn(-c2c(F)cc(F)cc2F)c2nc(N3C[C@@H](O)[C@H](OC(C)=O)C3)c(F)cc2c1=O)C(F)(F)F` [Example 35, (3R,4R)-1-[3-Fluoro-5-oxo-6-{[(2S)-1,1,1-trifluorobutan-2-yl]carbamoyl}-8-(2,4,6-trifluoro-phenyl)-5,8-dihydro-1,8-naphthyridin-2-yl]-4-hydroxypyrrolidin-3-yl acetate], the response was half-maximal at 2.9 nM (EC50) and the Emax was 100%.

With `CCC(C)(C)NC(=O)c1cn(-c2c(F)cc(F)cc2Cl)c2nc(N3C[C@@H](O)[C@H](O)C3)c(F)cc2c1=O` [Example 73, 1-(2-Chloro-4,6-difluorophenyl)-7-[(3R,4R)-3,4-dihydroxypyrrolidin-1-yl]-6-fluoro-N-(2-methylbutan-2-yl)-4-oxo-1,4-dihydro-1,8-naphthyridine-3-carboxamide], the half-maximal effective concentration (EC50) turned out to be 2.7 nM and the maximum response (Emax) came out at 94%.
